The text below walks through data of US20230365537A1, “POLO LIKE KINASE 4 INHIBITORS” (ORIC Pharmaceuticals, Inc., priority 2021, published 2023).

For orientation: IC50 means the concentration needed to halve the response being measured.

Structures are written as SMILES.

The target of one assay is human recombinant PLK4 (Homo sapiens (Human), UniProt O00444). Put plainly: PLK4 Biochemical Assay (ADP-Glo). Conditions: 0.5 nM PLK4, 8.0 µM ATP, 4.7 µM MBP, 6 hours at RT. A digest of the protocol:
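Luminescent ADP-Glo detection quantified ADP production, with ATP depletion for 40 min and detection for 30 min at room temperature. Compound and PLK4 (1.0 nM stock addition) were preincubated 15 min in HEPES pH 7.5 buffer containing MgCl2, EGTA, DTT, Brij-35 and BSA. IC50 values were obtained by four-parameter nonlinear regression.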

The next assay has as its system CHP-134 cells. The assay is described as follows: CHP134 CellTiter-Glo (CTG) Assay. Conditions: Homo sapiens, CHP-134, 120 h, 5 days, viable cells by CellTiter-Glo. In kind it is cell-based. A digest of the protocol: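 Nine-point 1:3 dilution series, diluted into growth media, added in quadruplicate to CHP-134 cells plated 16 h earlier at 200 cells/well.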
On the technique in general: Cellular ATP, detected with luciferase, serves as a proxy for viable cell number.

In assay [1] the target is human recombinant Aurora A (Homo sapiens (Human), UniProt O14965). Put plainly: Aurora A Kinase Biochemical Assay (ADP-Glo). The conditions noted are these: ratio of Aurora A IC50 to PLK4 IC50 (selectivity).
Sequence of human recombinant Aurora A (O14965 whole entry): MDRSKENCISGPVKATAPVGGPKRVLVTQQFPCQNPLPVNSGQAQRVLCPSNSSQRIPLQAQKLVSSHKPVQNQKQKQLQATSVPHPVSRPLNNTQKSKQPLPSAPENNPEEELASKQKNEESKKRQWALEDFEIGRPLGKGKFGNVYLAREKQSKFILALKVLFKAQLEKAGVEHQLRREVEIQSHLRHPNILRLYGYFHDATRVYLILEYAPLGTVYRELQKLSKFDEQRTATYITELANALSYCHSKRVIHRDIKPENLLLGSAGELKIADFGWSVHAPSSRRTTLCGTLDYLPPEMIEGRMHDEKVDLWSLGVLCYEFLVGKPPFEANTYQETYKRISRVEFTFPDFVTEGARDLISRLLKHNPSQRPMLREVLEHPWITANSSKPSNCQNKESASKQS
Assay [2] deals with human recombinant Aurora B (Homo sapiens (Human), UniProt Q96GD4). The assay is described as follows: Aurora B Kinase Biochemical Assay (ADP-Glo). The conditions noted are these: ratio of Aurora B IC50 to PLK4 IC50 (selectivity). A digest of the protocol:
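IC50 derived by four-parameter nonlinear fit of ADP-Glo luminescence (ADP produced). Compound was preincubated 15 min at RT with 20 nM recombinant human Aurora B, in 50 mM HEPES pH 7.5, 10 mM MgCl2, 1 mM EGTA, 1 mM DTT, 0.01% Brij-35/BSA.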
(In general: In ADP-Glo the light output rises with the ADP produced.)

Sequence of human recombinant Aurora B (Q96GD4 whole entry): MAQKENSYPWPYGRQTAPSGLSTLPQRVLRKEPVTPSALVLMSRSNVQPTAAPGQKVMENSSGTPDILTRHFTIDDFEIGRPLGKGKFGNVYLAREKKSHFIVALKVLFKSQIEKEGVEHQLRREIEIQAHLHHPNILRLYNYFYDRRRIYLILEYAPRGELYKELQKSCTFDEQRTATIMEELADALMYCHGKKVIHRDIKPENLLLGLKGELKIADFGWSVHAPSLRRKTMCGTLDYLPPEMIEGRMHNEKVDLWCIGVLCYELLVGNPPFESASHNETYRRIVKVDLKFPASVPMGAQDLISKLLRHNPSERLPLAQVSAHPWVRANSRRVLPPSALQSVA
Sequence of human recombinant PLK4 (O00444 whole entry): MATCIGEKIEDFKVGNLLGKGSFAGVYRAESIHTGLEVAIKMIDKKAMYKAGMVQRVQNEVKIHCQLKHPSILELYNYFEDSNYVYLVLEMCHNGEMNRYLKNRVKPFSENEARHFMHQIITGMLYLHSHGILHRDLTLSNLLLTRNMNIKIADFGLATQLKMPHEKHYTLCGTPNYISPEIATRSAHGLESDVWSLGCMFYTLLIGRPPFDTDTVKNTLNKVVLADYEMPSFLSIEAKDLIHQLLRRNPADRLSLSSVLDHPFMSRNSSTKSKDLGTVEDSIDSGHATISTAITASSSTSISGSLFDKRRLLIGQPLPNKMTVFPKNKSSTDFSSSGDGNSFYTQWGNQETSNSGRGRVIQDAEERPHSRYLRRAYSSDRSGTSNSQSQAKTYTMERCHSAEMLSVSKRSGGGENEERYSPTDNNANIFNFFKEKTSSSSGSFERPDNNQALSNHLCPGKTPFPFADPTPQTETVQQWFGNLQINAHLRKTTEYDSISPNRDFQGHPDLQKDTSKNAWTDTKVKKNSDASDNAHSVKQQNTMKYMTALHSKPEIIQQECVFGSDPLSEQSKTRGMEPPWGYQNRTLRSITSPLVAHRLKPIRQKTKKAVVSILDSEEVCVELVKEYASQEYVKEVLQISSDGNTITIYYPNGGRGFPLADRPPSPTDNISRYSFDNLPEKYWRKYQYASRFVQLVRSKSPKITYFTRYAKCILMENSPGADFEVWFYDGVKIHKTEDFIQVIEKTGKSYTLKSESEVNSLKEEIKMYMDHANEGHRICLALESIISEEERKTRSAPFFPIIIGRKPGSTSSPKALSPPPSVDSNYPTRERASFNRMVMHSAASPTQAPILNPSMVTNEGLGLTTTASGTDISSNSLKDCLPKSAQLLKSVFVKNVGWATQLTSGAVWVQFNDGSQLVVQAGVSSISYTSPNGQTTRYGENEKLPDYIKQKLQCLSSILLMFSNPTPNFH

Take `COc1ccc2c(c1)[C@]1(C[C@H]1c1ccc3c(Nc4nc(C)ncc4OC)n[nH]c3c1)C(=O)N2` [Example 87, (1R,2S)-5′-methozy-2-{3-[(5-methoxy-2-methylpyrimidin-4-yl)amino]-1H-indazol-6-yl}spiro[cyclopropane-1,3′-indol]-2′(1′H)-one]: the figures for the IC50 at human recombinant PLK4 and in the assay on CHP-134 cells were 1.58 nM and 235 nM, respectively. Also, the “[Aurora A IC50 (nM)]/[PLK4 IC50 (nM)]” value in assay [1] is 973.4177. Also, the “[Aurora B IC50 (nM)]/[PLK4 IC50 (nM)]” value in assay [2] was determined as 133.9241.
On the same counts, the results for `COc1ccc2c(c1)[C@]1(C[C@H]1c1ccc3c(Nc4nc(C)ccc4OC)n[nH]c3c1)C(=O)N2` [Example 88, (1R,2S)-5′-methoxy-2-{3-[(3-methoxy-6-methylpyridin-2-yl)amino]-1H-indazol-6-yl}spiro[cyclopropane-1,3′-indol]-2′(1′H)-one] are 2.67 nM, 1810 nM, 1997.754 and 44.7979.
On the same counts, the results for `COc1ccc2c(c1)[C@]1(C[C@H]1c1ccc3c(Nc4cc(C)cnc4OC)n[nH]c3c1)C(=O)N2` [Example 89, (1R,2S)-5′-methoxy-2-{3-[(2-methoxy-5-methylpyridin-3-yl)amino]-1H-indazol-6-yl}spiro[cyclopropane-1,3′-indol]-2′(1′H)-one] are 2.32 nM, 10000 nM, 1736.729 and 314.3289.
Taken in the same sequence, the figures for `COc1ccc2c(c1)[C@]1(C[C@H]1c1ccc3c(Nc4cc(C5CC5)nn4C)n[nH]c3c1)C(=O)N2` [Example 91, (1R,2S)-2-{3-[(3-cyclopropyl-1-methyl-1H-pyrazol-5-yl)amino]-1H-indazol-6-yl}-5′-methoxyspiro[cyclopropane-1,3′-indol]-2′(1′H)-one] were 4.02 nM, 3200 nM, 436.427 and 79.87.
As to `COc1ccc2c(c1)[C@]1(C[C@H]1c1ccc3c(Nc4ncc(N5CCOCC5)nc4OC)n[nH]c3c1)C(=O)N2` [Example 94, (1R,2S)-5′-methoxy-2-(3-{[3-methoxy-5-(morpholin-4-yl)pyrazin-2-yl]amino}-1H-indazol-6-yl)spiro[cyclopropane-1,3′-indol]-2′(1′H)-one], the IC50 at human recombinant PLK4 was determined as 5.61 nM; in the assay with CHP-134 cells it was 4600 nM. Further, the “[Aurora A IC50 (nM)]/[PLK4 IC50 (nM)]” value in assay [1] is 533.856. In addition, the “[Aurora B IC50 (nM)]/[PLK4 IC50 (nM)]” value in assay [2] is listed as 41.732.
Regarding `COc1ccc2c(c1)[C@]1(C[C@H]1c1ccc3c(Nc4ccnc(N5CCOCC5)c4OC)n[nH]c3c1)C(=O)N2` [Example 95, (1R,2S)-5′-methoxy-2-(3-{[3-methoxy-2-(morpholin-4-yl)pyridin-4-yl]amino}-1H-induzol-6-yl)spiro[cyclopropane-1,3′-indol]-2′(1′H)-one], the IC50 was 1.31 nM at human recombinant PLK4 and 319 nM in the assay with CHP-134 cells. Further, in assay [1], the “[Aurora A IC50 (nM)]/[PLK4 IC50 (nM)]” value was determined as 2386.677. Also, the “[Aurora B IC50 (nM)]/[PLK4 IC50 (nM)]” value in assay [2] came to 54.26.
Taken in the same sequence, the figures for `COc1ccc2c(c1)[C@]1(C[C@H]1c1ccc3c(Nc4cc(C)ncc4Cl)n[nH]c3c1)C(=O)N2` [Example 96, (1R,2S)-2-{3-[(5-chloro-2-methylpyridin-4-yl)amino]-1H-indazol-6-yl}-5′-metboxyspiro[cyclopropane-l,3′-indol]-2′(1′H)-one] were 11.3 nM, 56.6 nM, 511.3656 and 351.8943.
Taken in the same sequence, the figures for `COc1ccc2c(c1)[C@]1(C[C@H]1c1ccc3c(Nc4nc(N5CCOCC5)ncc4OC)n[nH]c3c1)C(=O)N2` [Example 97, (lR,2S)-5′-methoxy-2-(3-{[5-methoxy-2-(morpholin-4-yl)pyrimidin-4-yl]amino}-1H-indazol-6-yl)spiro[cyclopropane-1,3′-indol]-2′(1′H)-one] were 1.14 nM, 222 nM, 309.2186 and 520.2809.
Consider `COc1ccc2c(c1)[C@]1(C[C@H]1c1ccc3c(Nc4nc(C)ncc4Cl)n[nH]c3c1)C(=O)N2` [Example 98, (1R,2S)-2-{3-[(5-chloro-2-methylpyrimidin-4-yl)amino]-1H-indazol-6-yl)-5′-methoxyspiro[cyclopropane-1,3′-indol]-2′(1′H)-one], for which the results for the IC50 on human recombinant PLK4 and with CHP-134 cells were 7.55 nM and 65.8 nM, respectively. Further, the “[Aurora A IC50 (nM)]/[PLK4 IC50 (nM)]” value in assay [1] was 787.0003. Moreover, the “[Aurora B IC50 (nM)]/[PLK4 IC50 (nM)]” value in assay [2] is 305.5335.
Taken in the same sequence, the figures for `COc1ccc2c(c1)[C@]1(C[C@H]1c1ccc3c(Nc4nc(N5CCOCC5)cnc4OC)n[nH]c3c1)C(=O)N2` [Example 99, (1R,2S)-5′-methoxy-2-(3-{[3-methoxy-6-(morpholin-4-yl)pyrazin-2-yl]amino)-1H-indazol-6-yl)spiro[cyclopropane-1,3′-indol]-2′(1′H)-one] were 5.8 nM, 565 nM, 155.05 and 129.9724.
Take `COc1ccc2c(c1)[C@]1(C[C@H]1c1ccc3c(Nc4nc(C5COC5)cnc4OC)n[nH]c3c1)C(=O)N2` [Example 100, (1R,2S)-5′-methoxy-2-(3-{[3-methoxy-6-(oxetan-3-yl)pyrazin-2-yl]amino}-1H-indazol-6-yl)spiro[cyclopropane-1,3′-indol]-2′(l′H)-one]: the concentration for half-maximal inhibition (IC50) on human recombinant PLK4 came out at 1.73 nM; in the assay on CHP-134 cells it was 567 nM. The “[Aurora A IC50 (nM)]/[PLK4 IC50 (nM)]” value in assay [1] is listed as 382.0069. Also, in assay [2], the “[Aurora B IC50 (nM)]/[PLK4 IC50 (nM)]” value is 230.4498.
In the case of `COc1ccc2c(c1)[C@]1(C[C@H]1c1ccc3c(Nc4cc(C(C)C)nnc4OC)n[nH]c3c1)C(=O)N2` [Example 101, (1R,2S)-5′-methoxy-2-(3-{[3-methoxy-6-(propan-2-yl)pyridazin-4-yl]amino}-1H-indazol-6-yl)spiro[cyclopropane-1,3′-indol]-2′(1′H)-one], the IC50 was 11.3 nM at human recombinant PLK4 and 2290 nM in the assay on CHP-134 cells. Also, the “[Aurora A IC50 (nM)]/[PLK4 IC50 (nM)]” value in assay [1] was found to be 1271.845. Further, in assay [2], the “[Aurora B IC50 (nM)]/[PLK4 IC50 (nM)]” value turned out to be 1002.648.
`COc1ccc2c(c1)[C@]1(C[C@H]1c1ccc3c(Nc4ncnc(N5CC(O)C5)c4Cl)n[nH]c3c1)C(=O)N2C` [Example 107, (1R,2S)-2-(3-{[5-chloro-6-(3-hydroxyazetidin-1-yl)pyrimidin-4-yl]amino}-1H-indazol-6-yl)-5′-methoxy-1′-methylspiro[cyclopropane-1,3′-indol]-2′(1′H)-one]: the IC50 at human recombinant PLK4 turned out to be 5.7 nM; in the assay with CHP-134 cells it was 730 nM. The “[Aurora A IC50 (nM)]/[PLK4 IC50 (nM)]” value in assay [1] came out at 1455.295. In addition, the “[Aurora B IC50 (nM)]/[PLK4 IC50 (nM)]” value in assay [2] came out at 174.4215.
Taken in the same sequence, the figures for `CCN1C(=O)[C@@]2(C[C@H]2c2ccc3c(Nc4ncnc(N5CC(O)C5)c4Cl)n[nH]c3c2)c2cc(OC)ccc21` [Example 108, (1R,2S)-2-(3-{[5-chloro-6-(3-hydroxyazetidin-1-yl)pyrimidin-4-yl]amino}-1H-indazol-6-yl)-1′-ethyl-5′-methoxyspiro[cyclopropane-1,3′-indol]-2′(1′H)-one] were 4.37 nM, 1090 nM, 3889.143 and 230.6459.
Taken in the same sequence, the figures for `COc1ccc2c(c1)[C@]1(C[C@H]1c1ccc3c(Nc4ncnc(N5CCOCC5)c4OC(F)F)n[nH]c3c1)C(=O)N2` [Example 109, (1R,2S)-2-(3-{[5-(difluoromethoxy)-6-(morpholin-4-yl)pyrimidin-4-yl]amino}-lH-indazol-6-yl)-5′-methoxyspiro[cyclopropane-1,3′-indol]-2′(1′H)-one] were 6.76 nM, 1870 nM, 50000 and 11070.
On the same counts, the results for `COc1ccc2c(c1)[C@]1(C[C@H]1c1ccc3c(Nc4ncnc(N5CCOCC5)c4OC)n[nH]c3c1)C(=O)N2C` [Example 113, (1R,2S)-5′-methoxy-2-(3-{[5-methoxy-6-(morpholin-4-yl)pyrimidin-4-yl]amino}-1H-indazol-6-yl)-1′-methylspiro[cyclopropane-1,3′-indol]-2′(1′H)-one] are 10.7 nM, 2520 nM, 1888.2629 and 231.7370.
As to `COc1ccc2c(c1)[C@]1(C[C@H]1c1ccc3c(Nc4nc(N5CC(O)C5)ncc4OC)n[nH]c3c1)C(=O)N2` [Example 114], the results for the IC50 on human recombinant PLK4 and with CHP-134 cells were 2.09 nM and 10000 nM, respectively. Further, the “[Aurora A IC50 (nM)]/[PLK4 IC50 (nM)]” value in assay [1] amounted to 590.1482. The “[Aurora B IC50 (nM)]/[PLK4 IC50 (nM)]” value in assay [2] amounted to 811.5734.
On the same counts, the results for `COc1ccc2c(c1)[C@]1(C[C@H]1c1ccc3c(Nc4cncc(C5COC5)n4)n[nH]c3c1)C(=O)N2` [Example 115, (1R,2S)-5′-methoxy-2-(3-{[6-(oxetan-3-yl)pyrazin-2-yl]amino}-1H-indazol-6-yl)spiro[cyclopropane-1,3′-indol]-2′(1′H)-one] are 8.04 nM, 3460 nM, 132.6035 and 186.3415.
